Measurements as given in patent publication US11878049B1, “Mitapivat therapy and modulators of cytochrome P450” (Agios Pharmaceuticals, Inc., priority 2019, dated 2024).
Counter-ions that a name gives are not always drawn.

Legend:
Type in all cases: in vitro ADME
CYP2C19 [1] = target: T1, CYP2C19 (Homo sapiens, UniProt P33261); experiment: Metabolism-dependent CYP inhibition
CYP3A4 = CYP3A4 (Homo sapiens, UniProt P08684); experiment: Metabolism-dependent CYP inhibition
P-gp [2] = target: T2, P-gp (Homo sapiens, UniProt P08183); experiment: Transporter substrate assessment
P-gp [3] = target: T2, P-gp; experiment: Transporter inhibition
[4] = target: T3, breast cancer resistance protein (BCRP) (Homo sapiens, UniProt Q9UNQ0); experiment: Transporter substrate assessment
T3 sequence (Q9UNQ0 1-655): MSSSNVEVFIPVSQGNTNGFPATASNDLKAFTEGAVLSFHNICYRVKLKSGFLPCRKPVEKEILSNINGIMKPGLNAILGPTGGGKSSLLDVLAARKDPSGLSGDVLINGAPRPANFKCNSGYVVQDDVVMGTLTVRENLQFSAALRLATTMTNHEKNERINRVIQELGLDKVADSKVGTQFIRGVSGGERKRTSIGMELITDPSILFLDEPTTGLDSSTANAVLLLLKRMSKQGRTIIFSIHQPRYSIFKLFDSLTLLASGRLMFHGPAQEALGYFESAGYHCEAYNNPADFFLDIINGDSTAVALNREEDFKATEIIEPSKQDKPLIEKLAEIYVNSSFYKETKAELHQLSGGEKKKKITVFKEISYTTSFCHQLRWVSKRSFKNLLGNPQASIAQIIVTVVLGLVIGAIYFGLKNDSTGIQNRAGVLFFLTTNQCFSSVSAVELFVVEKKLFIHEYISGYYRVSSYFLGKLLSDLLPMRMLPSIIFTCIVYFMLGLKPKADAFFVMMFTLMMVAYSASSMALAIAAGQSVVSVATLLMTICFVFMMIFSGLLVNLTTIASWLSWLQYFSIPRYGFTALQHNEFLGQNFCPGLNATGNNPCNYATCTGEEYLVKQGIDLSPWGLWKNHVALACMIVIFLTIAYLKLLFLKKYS

[5] = target: T3, breast cancer resistance protein (BCRP); experiment: Transporter inhibition
human CYP2B6 = experiment: CYP induction
human CYP3A4 = experiment: CYP induction
CYP2C8 = CYP2C8 (Homo sapiens, UniProt P10632); experiment: CYP enzyme inhibition
CYP2C9 = CYP2C9 (Homo sapiens, UniProt P11712); experiment: CYP enzyme inhibition
CYP2C19 [6] = target: T1, CYP2C19; experiment: CYP enzyme inhibition
CYP2D6 = CYP2D6 (Homo sapiens, UniProt P10635); experiment: CYP enzyme inhibition
CYP3A4/5 = experiment: CYP enzyme inhibition (testosterone 6β-hydroxylation)
[7] = target: bile salts export pump (BSEP) (Homo sapiens, UniProt O95342); experiment: Transporter inhibition
[8] = target: organic anion transporting polypeptide (OATP)1B1 (Homo sapiens, UniProt Q9Y6L6); experiment: Transporter inhibition
[9] = target: organic anion transporter (OAT)3 (Homo sapiens, UniProt Q8TCC7); experiment: Transporter inhibition
[10] = target: organic cation transporter (OCT)2 (Homo sapiens, UniProt O15244); experiment: Transporter inhibition
[11] = target: uridine-5′-diphospho-glucuronosyltransferase (UGT) 1A3 (Homo sapiens, UniProt P35503); experiment: UGT inhibition
[12] = target: uridine-5′-diphospho-glucuronosyltransferase (UGT) 1A4 (Homo sapiens, UniProt P22310); experiment: UGT inhibition
[13] = target: uridine-5′-diphospho-glucuronosyltransferase (UGT) 1A9 (Homo sapiens, UniProt O60656); experiment: UGT inhibition
[14] = target: multidrug resistance-associated protein (MRP)2 (Homo sapiens, UniProt Q92887); experiment: Transporter inhibition
MRP3 = MRP3 (Homo sapiens, UniProt O15438); experiment: Transporter inhibition
OATP1B3 = OATP1B3 (Homo sapiens, UniProt Q9NPD5); experiment: Transporter inhibition
OAT1 = OAT1 (Homo sapiens, UniProt Q4U2R8); experiment: Transporter inhibition

T2 sequence (P08183 whole entry): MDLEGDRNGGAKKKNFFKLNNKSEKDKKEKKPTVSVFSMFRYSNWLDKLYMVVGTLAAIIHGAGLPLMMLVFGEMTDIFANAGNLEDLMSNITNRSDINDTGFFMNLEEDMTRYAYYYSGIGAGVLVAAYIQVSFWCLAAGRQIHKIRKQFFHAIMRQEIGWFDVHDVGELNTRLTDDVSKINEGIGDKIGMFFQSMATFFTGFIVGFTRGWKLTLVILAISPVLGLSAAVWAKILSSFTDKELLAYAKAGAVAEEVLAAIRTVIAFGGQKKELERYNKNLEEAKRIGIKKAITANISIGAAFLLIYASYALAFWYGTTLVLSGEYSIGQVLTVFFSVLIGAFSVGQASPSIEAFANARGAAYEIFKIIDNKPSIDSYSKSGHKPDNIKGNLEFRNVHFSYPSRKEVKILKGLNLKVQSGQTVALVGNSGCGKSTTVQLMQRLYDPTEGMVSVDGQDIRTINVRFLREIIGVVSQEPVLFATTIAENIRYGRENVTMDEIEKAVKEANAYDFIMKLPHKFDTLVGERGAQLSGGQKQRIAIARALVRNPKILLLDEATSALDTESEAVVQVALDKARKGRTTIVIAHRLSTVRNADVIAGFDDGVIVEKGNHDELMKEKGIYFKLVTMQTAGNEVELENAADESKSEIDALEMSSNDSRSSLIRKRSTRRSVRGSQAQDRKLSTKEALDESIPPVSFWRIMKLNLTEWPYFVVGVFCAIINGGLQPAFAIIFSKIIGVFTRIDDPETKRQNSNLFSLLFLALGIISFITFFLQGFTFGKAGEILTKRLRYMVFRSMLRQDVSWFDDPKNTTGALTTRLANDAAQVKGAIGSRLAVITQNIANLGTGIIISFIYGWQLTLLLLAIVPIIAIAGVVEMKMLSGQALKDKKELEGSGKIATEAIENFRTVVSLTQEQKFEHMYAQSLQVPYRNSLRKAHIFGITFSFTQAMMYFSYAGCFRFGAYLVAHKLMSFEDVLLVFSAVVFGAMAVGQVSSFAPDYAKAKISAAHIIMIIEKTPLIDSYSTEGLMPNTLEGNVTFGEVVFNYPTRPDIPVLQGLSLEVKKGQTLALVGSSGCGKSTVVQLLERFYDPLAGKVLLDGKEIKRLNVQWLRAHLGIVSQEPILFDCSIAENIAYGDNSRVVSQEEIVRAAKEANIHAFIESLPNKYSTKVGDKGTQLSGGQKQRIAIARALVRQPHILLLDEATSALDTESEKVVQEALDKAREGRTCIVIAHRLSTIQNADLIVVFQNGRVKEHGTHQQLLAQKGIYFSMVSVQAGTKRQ
T1 sequence (P33261 whole entry): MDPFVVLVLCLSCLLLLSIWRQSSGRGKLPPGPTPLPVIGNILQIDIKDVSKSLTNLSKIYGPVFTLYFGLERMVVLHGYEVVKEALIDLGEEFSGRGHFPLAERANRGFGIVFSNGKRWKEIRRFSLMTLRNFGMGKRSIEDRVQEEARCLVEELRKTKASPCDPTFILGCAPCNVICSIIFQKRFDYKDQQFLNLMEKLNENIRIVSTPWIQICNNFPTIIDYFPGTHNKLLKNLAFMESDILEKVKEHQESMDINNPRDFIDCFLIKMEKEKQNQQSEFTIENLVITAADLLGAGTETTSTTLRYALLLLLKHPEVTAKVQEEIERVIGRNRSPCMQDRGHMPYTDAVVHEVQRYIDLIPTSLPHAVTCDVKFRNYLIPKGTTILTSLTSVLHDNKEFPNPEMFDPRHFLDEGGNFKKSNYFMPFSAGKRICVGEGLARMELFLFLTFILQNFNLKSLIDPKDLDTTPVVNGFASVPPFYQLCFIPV
CYP3A4, sequence (P08684 whole entry): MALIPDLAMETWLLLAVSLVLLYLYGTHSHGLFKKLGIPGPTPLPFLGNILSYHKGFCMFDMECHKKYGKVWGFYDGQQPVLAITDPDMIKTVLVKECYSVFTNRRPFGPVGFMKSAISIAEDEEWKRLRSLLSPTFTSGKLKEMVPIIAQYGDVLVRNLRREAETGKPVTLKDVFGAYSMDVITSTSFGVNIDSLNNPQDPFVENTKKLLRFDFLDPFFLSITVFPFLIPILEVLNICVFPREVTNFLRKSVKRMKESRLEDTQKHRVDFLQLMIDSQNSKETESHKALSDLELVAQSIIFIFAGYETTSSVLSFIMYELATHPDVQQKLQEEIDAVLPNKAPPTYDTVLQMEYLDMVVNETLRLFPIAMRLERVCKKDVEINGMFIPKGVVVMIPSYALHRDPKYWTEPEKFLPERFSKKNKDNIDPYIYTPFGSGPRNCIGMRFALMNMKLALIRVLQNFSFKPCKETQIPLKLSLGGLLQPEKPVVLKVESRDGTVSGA
organic anion transporter (OAT)3, sequence (Q8TCC7 whole entry): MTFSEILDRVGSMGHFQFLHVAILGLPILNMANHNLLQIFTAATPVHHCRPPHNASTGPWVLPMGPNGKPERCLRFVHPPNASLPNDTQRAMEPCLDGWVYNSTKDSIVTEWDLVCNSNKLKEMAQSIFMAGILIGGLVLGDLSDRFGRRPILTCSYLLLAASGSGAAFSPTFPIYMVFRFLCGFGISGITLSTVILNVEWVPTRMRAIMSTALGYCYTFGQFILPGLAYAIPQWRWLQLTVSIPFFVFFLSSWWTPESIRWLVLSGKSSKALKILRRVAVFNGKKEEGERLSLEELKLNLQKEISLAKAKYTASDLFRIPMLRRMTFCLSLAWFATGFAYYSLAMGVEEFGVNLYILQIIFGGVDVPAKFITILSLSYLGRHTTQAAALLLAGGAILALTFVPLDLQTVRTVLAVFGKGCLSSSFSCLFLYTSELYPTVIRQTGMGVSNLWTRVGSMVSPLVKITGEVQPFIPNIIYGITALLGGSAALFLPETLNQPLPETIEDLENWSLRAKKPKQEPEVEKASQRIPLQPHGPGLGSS
uridine-5′-diphospho-glucuronosyltransferase (UGT) 1A9, sequence (O60656 26-530): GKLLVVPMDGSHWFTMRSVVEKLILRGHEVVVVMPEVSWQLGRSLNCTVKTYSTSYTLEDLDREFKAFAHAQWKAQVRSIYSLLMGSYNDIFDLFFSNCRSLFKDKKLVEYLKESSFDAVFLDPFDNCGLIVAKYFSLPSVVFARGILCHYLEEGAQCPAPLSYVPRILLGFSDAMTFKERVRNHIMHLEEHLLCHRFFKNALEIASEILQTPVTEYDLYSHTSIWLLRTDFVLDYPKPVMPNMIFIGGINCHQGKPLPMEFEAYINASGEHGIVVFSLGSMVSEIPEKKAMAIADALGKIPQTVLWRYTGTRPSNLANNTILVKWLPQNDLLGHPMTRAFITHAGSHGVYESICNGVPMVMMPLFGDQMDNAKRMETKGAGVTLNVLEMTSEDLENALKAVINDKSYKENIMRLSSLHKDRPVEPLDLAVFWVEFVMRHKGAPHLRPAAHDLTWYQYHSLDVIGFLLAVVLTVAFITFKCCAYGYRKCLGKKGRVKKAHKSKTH
CYP2C8, sequence (P10632 whole entry): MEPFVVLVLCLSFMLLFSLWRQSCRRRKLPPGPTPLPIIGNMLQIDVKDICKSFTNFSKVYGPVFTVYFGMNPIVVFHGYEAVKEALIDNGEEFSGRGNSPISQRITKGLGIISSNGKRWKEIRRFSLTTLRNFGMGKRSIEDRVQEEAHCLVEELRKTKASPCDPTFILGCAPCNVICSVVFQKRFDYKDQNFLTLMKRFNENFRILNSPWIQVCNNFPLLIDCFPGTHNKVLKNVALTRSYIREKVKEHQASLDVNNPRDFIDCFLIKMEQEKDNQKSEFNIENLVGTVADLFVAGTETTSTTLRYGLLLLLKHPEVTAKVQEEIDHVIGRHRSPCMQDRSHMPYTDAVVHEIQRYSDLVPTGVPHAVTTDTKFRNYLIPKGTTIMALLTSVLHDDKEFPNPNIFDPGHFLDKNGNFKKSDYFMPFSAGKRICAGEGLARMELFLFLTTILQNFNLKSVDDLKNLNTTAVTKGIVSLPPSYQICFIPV
uridine-5′-diphospho-glucuronosyltransferase (UGT) 1A3, sequence (P35503 29-534): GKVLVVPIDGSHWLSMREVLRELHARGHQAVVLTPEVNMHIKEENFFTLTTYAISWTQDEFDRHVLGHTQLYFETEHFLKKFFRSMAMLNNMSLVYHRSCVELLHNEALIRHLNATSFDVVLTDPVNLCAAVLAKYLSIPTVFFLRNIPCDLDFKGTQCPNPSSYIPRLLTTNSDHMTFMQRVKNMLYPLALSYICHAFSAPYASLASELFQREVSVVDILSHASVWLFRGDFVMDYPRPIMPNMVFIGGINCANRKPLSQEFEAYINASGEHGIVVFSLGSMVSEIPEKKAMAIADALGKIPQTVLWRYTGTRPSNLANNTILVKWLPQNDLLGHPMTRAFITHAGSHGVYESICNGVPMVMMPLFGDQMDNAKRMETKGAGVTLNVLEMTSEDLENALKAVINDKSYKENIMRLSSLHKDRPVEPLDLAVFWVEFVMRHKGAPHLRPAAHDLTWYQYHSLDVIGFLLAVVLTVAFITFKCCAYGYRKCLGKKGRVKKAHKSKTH
OATP1B3, sequence (Q9NPD5 whole entry): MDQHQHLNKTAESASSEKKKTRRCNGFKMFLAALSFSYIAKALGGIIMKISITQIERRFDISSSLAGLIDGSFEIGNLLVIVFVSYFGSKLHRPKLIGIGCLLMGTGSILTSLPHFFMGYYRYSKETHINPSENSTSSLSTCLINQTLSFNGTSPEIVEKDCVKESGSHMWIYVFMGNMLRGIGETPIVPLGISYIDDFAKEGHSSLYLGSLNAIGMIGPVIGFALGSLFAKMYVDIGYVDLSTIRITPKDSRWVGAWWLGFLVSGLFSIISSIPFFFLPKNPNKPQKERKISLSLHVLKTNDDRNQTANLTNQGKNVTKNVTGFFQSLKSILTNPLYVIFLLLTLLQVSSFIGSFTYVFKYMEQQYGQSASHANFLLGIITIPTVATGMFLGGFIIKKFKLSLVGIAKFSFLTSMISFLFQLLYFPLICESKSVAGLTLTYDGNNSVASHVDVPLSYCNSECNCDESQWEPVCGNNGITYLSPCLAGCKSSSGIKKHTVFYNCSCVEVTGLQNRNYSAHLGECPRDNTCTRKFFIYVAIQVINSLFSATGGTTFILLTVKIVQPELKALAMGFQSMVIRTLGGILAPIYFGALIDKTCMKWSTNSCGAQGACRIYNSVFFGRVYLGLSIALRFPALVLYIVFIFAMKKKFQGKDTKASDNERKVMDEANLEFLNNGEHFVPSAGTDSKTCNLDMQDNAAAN

Metabolism-dependent inhibition of CYP2C19 (evidence found), reversibility (CYP2C19 [1]): largely reversible | Metabolism-dependent inhibition of CYP3A4 (evidence found), reversibility (CYP3A4): largely irreversible | Substrate for P-gp (P-gp [2]): substrate | Inhibitor for P-gp (P-gp [3]): inhibitor | Induction of human CYP2B6 (human CYP2B6): potential inducer | Induction of human CYP3A4 (human CYP3A4): potential inducer | Inhibition of CYP2C8 (CYP2C8): mild inhibitor | Inhibition of CYP2C9 (CYP2C9): mild inhibitor | Inhibition of CYP2C19 (CYP2C19 [6]): mild inhibitor | Inhibition of CYP2D6 (CYP2D6): mild inhibitor | Inhibition of CYP3A4/5 (CYP3A4/5): mild inhibitor | Inhibition of OATP1B1 [8]: mild inhibitor | Inhibition of OAT3 [9]: mild inhibitor | Inhibition of OCT2 [10]: mild inhibitor | Inhibition of UGT1A3 [11]: mild inhibitor | Inhibition of UGT1A4 [12]: mild inhibitor | Inhibition of UGT1A9 [13]: mild inhibitor | Inhibition of MRP2 [14]: does not appear to be an inhibitor | Inhibition of MRP3 (MRP3): does not appear to be an inhibitor | Inhibition of OATP1B3 (OATP1B3): does not appear to be an inhibitor | Inhibition of OAT1 (OAT1): does not appear to be an inhibitor
Structure (SMILES): O=C(c1ccc(NS(=O)(=O)c2cccc3cccnc23)cc1)N1CCN(CC2CC2)CC1 [Mitapivat sulfate]
Substrate for BCRP [4]: not for breast cancer resistance protein (BCRP) | Inhibitor for BCRP [5]: not for breast cancer resistance protein (BCRP) | Inhibition of BSEP [7]: mild inhibitor
